# Assay results: ChEMBL document CHEMBL5233225, “Para-sulfonatocalix[n]arene-based biomaterials: Recent progress in pharmaceutical and biological applications” (Eur J Med Chem, 2020)
# Key:
# K562 = assay: Photodynamic antitumor activity against human K562 cells assessed as mortality rate preincubated for 24 hrs followed by irradiation by UV-VIS spectrophotometer; type: functional
# [1] = Haemolytic activity in human RBC measured after 30 mins by spectrophotometric analysis; type: toxicity, cell-based, Erythrocyte; conditions: red blood cells (RBC), read-out: Activity
Structure (SMILES),Activity (K562),hemolysis at 0.5 h [1]
O=S(=O)(O)c1cc2c(O)c(c1)Cc1cc(S(=O)(=O)O)cc(c1O)Cc1cc(S(=O)(=O)O)cc(c1O)Cc1cc(S(=O)(=O)O)cc(c1O)Cc1cc(S(=O)(=O)O)cc(c1O)Cc1cc(S(=O)(=O)O)cc(c1O)C2,60%,12%
O=S(=O)(O)c1cc2c(O)c(c1)Cc1cc(S(=O)(=O)O)cc(c1O)Cc1cc(S(=O)(=O)O)cc(c1O)Cc1cc(S(=O)(=O)O)cc(c1O)Cc1cc(S(=O)(=O)O)cc(c1O)Cc1cc(S(=O)(=O)O)cc(c1O)Cc1cc(S(=O)(=O)O)cc(c1O)Cc1cc(S(=O)(=O)O)cc(c1O)C2,30%,29%
